# Entries after “also recorded” stand apart in the source; their conditions may differ. No end group written: not given here.
# Assays:
# HIV = settings: cited from earlier work
# RG2 cells [1] = assay: Fluorescein peptide uptake by RG2 cells, fluorescence microscopy; format: cell-based, rat
# Procedure: (§1) For fluorescent microscopy studies cells were plated on 2 chamber cover slips at a density of 1×10^4 cells/chamber. Cells were incubated with […] peptide for 30 minutes in completed media, washed with PBS 3× and imaged using a Nikon Axiophot inverted fluorescent microscope. Images were taken using a Spot CCD camera.
# Similar observations were obtained for all the peptides in another human glioblastoma cell line, T98G.
# T98G cells = assay: Fusion peptide cell killing, propidium iodide/FACS viability, T98G cells; format: cell-based, human; settings: 10 μM peptide, 1 hr
# Procedure: (§2) Other experiments were performed using two glioma cell lines, i.e., T98G and RG2. 1×10^6 cells per well were incubated in 6-well plates with peptides in complete media for 1 hr. Cells were removed from the plate using a cell stripper and the percentage of viable cells was determined by staining with propidium iodide and analyzing by fluorescence activated cell sorting (FACS).
# (§3) Cell viability studies were performed by plating the cells under the same conditions as the uptake studies. Cells were incubated with fluorescent peptides for 1 hr at 37° C. The cells were removed from the plate using cell striper. They were labeled with propidium iodide and fluorescein-AM. Percent PI positive cells were determined by FACS.
# RG2 cells [2] = assay: Fusion peptide cell killing, propidium iodide/FACS viability, RG2 cells; format: cell-based, rat
# Procedure: as §2
# There are 4 conserved amino acid differences between the rat and human CDKI sequence. Both sequences were attached to Tat and tested for cell killing activity in the rat glioma RG2 cells. Also the effect of orientation of the Tat and CDKI domains were tested. RG2 cells were plated on 6 well plates at approximately 70% confluency. Each of the peptides was added to the wells with increasing concentration. After 1 hr, cells were removed from the plates, washed 2× with PBS, stained with propidium iodide and analyzed by FACS for viable cells.
# as §3
# The cytotoxicity of the chimeric peptides was characterized using a cell viability assay. Peptides were added to cells at a fixed concentration. After a 30-minute incubation, cells were removed from the plate, stained with propidium iodide and the % positive cells were determined by FACS (fluorescent activated cell scanning). The test conditions were Tat, ANT, Tat-P14ARF, ANT-P14ARF and P14ARF. T98G cells were tested along with RG2 cells and A172 cells.
# rat cerebral arteries [3] = assay: Vasodilation and vasoconstriction response of rat cerebral arteries before and after peptide; format: cell-based; settings: after vs before intraluminal peptide
# Procedure: The blood vessels were put in culture described above and perfused with buffer of the same composition as cerebrospinal fluid. Vessel diameter was measured before and after administration of each reagent. 3 μM of each peptide was perfused through for 10 minutes followed by a 10 minute wash through. Vasoconstriction and vasodilation were determined for each vessel before peptide was applied. Perfusion was continued until the vessels relaxed to their original diamter (approximately 30 minutes). The vasoconstriction and vasodilation reponse was remeasured after the 10 minute wash through. The 60 mM KCl and 16 mM KCl conditions are […], respectively. Histamine and Bradykinin are endothelial cell vasodilators.
# (§4) In some experiments, the arterial segments were denuded of endothelium by passing an air bubble through the lumen, thus exposing the smooth muscle cells to luminally administered peptides. Constriction to pressure and 60 mM KCl and dilation of arteries with myogenic tone to 16 mM KCl were used as benchmarks of functional arteries. Peptide containing PCSF was perfused intraluminally at an inlet pressure of 70 mmHg with the outlet open, for 20 min and then perfused with normal PCSF. This procedure ensures a 20 min of exposure of the arteries to the peptide.
# (§5) Effect of peptide on endothelial and smooth muscle function was evaluated by histamine (0.3 and 1 μM) and bradykinin (0.5 μM) (endothelium-dependent vasodilators) and 16 and 60 mM KCl (results in dilation and constriction of arteries by hyperpolarizing and depolarizing smooth muscle, respectively). These drug solutions were added to the superfusate and applied to the arteries extraluminally for 10 to 15 min before and after intraluminal perfusion with peptides. Effects of these agents were expressed as percent change in myogenic tone (decrease for dilators and increase for constrictors). Experiments were concluded by exposing the arteries to calcium free PCSF to obtain the passive diameter. Cell viability was determined by adding H3334 (Hoechst viability stain, final concentration 1 μM) and propidium iodide (final concentration 1 μM) to the arteriograph after the peptide incubation. Fluorescent micrographs were taken of the vessels after incubation with peptides and following addition of the vital stains using Till Photonics imaging system (Martinsried, Germany).
# [4] = test system: HUVEC attachment to vitronectin coated plates; settings: read-out: IC50 for inhibiting HUVEC attachment to vitronectin coated plates; cited from earlier work
# Flk-1 = Flk-1 (Homo sapiens, UniProt P35968); settings: cited from earlier work
# [5] = test system: T98G cells, RG2 cells and A172 cells; assay: Cell viability assay of chimeric peptides in three cell types; format: cell-based, human and rat; settings: fixed concentration, 30-minute incubation
# Procedure: Synthetic peptides labeled with an N-terminal fluorescein were synthesized to test the ability of a shuttle domain to enter brain tumor and endothelial cells. The amino acid sequences for the shuttle domain was derived from HIV Tat amino acid 47 to 56 ([…] SEQ ID NO:23)(Robert-Guroff et al., J. Virol. 64:3391-3398, 1990) to which AGGG was added to the N-terminus, and the antennapedia homeodomain from drosophila (ANT) ([…] SEQ ID NO:24) (Astriab-Fisher et al., Pharm. Res., 19:744-754, 2002). A synthetic peptide (PTD-5) reported to have similar properties as Tat and ANT was also tested (Mai J. C. et al, Cancer Res. 2001; 61: 7709-7712.). Uptake was tested in two human glioblastoma cell lines and a rat glioma cell line, the latter being used for the rat brain tumor model. A 1 μM concentration of each peptide was added to 10^6 cells in a 6 well plate. […] The Tat and ANT peptides were doubled in length by the addition of […] (SEQ ID NO: 25), amino acids 42 to 55 from a human cyclin-dependent kinase inhibitor 2A (melanoma, p16, inhibits CDK4) (CDKI), transcript variant 4, mRNA (accession no. NM_058195). […]
# The cytotoxicity of the chimeric peptides was characterized using a cell viability assay. […] After a 30-minute incubation, cells were removed from the plate, stained with propidium iodide and the % positive cells were determined by FACS (fluorescent activated cell scanning). […]
# [6] = test system: two human glioblastoma cell lines and a rat glioma cell line; assay: Fluorescein peptide uptake, fluorescence microscopy, three glioma lines; format: cell-based; settings: 1 μM peptide, 10^6 cells, all three cell types
# Procedure: Synthetic peptides labeled with an N-terminal fluorescein were synthesized to test the ability of a shuttle domain to enter brain tumor and endothelial cells. The amino acid sequences for the shuttle domain was derived from HIV Tat amino acid 47 to 56 ([…] SEQ ID NO:23)(Robert-Guroff et al., J. Virol. 64:3391-3398, 1990) to which AGGG was added to the N-terminus, and the antennapedia homeodomain from drosophila (ANT) ([…] SEQ ID NO:24) (Astriab-Fisher et al., Pharm. Res., 19:744-754, 2002). A synthetic peptide (PTD-5) reported to have similar properties as Tat and ANT was also tested (Mai J. C. et al, Cancer Res. 2001; 61: 7709-7712.). Uptake was tested in two human glioblastoma cell lines and a rat glioma cell line, the latter being used for the rat brain tumor model. A 1 μM concentration of each peptide was added to 10^6 cells in a 6 well plate. […] The Tat and ANT peptides were doubled in length by the addition of […] (SEQ ID NO: 25), amino acids 42 to 55 from a human cyclin-dependent kinase inhibitor 2A (melanoma, p16, inhibits CDK4) (CDKI), transcript variant 4, mRNA (accession no. NM_058195). This domain binds MDM2 and inhibit ubiquination of P53, a tumor suppressor protein. […] Only the combination of Tat-CDKI was toxic to the cells, 65% killing for T98G and 61% killing for RG2 cells. […] Similar results were obtained with A172 cells. […]
# A172 cells = assay: Fluorescein peptide uptake by A172 cells, fluorescence microscopy; format: cell-based, human
# Procedure: as §1
# Synthetic peptides derived from HIV Tat (Tat) and the Drosophila antennaepedia homeodomain (ANT) were tested for cell uptake by A172 cells (human glioblastomas). The peptides were labeled at the N-terminus with fluorescein. Cells were incubated with 30 uM peptide at 37° C. in serum containing media. Fluorescent micrographs were taken after 1 hr incubation at 37° C. […] The size of the peptide was increased by added an Mdm-2 binding domain derived from P14ARF. This domain was added to the C-terminus of the Tat and ANT peptides. The P14ARF domain was also placed at the N-terminus followed by the Tat peptide. All the peptides were labeled at the N-terminus with fluorescein and cell incubations similar to the Tat and ANT peptides were tested for cellular uptake. […] Both the bright field and fluorescent micrographs show altered cell morphology.
# [7] = test system: endothelial cells and smooth muscle cells of rat cerebral arteries; assay: Uptake of fluorescent peptides by pressure-mounted rat cerebral arteries; format: cell-based
# Procedure: Tat-P16 peptides were prepared and labeled with fluorescein for use in uptake studies using intact blood vessels isolated from rat brain. Blood vessels were dissected from rat brain and stabilized in an isolated perfusion system in which vessels were attached on either end to catheters and placed under physiological pressure. Following a 10 minute perfusion of the isolated vessels with flurorescent Tat-P16 peptide (1 μM), vessels were examined for uptake of the peptides. […] Within the endothelial cells, the labeled peptides were seen to be localized to the cell nuclei, further confirming uptake of the peptides by the cells.
# The peptides are fairly labile in the media and approximately 50% are degraded upon incubation at 37° C. in complete media (qualitative analysis by PAGE) after 1 hour. […] Uptake of these peptides and cell killing activity was tested in a 3 dimensional organ culture using rat cerebral arteries cultured under physiological pressure and flow. A segment of the rat cerebral artery is surgically removed and placed in ringer's solution. Using a surgical stereoscope, the blood vessel is tied at either end to two cannulas on a teflon stage. Ringer's solution is perfused through the lumen of the vessel at a constant rate that maintains physiologic hydrostatic pressure. The fluorescent peptide was introduced intraluminally by perfusing a 1 μM solution of peptide through the lumen over a 10 minute period.
# Rats were anesthetized by intraperitoneal injection of pentobarbital sodium (160 mg/kg) and killed by decapitation. The brain was removed and placed in an ice-cold oxygenated physiological cerebrospinal fluid (PCSF, see below for composition). Cerebellar arteries were isolated and mounted in an arteriograph as described previously (Knot and Nelson 1998). The arteriograph was placed on an inverted microscope and the artery was visualized with a monochrome CCD camera coupled to a calibrated video caliper system to measure arterial diameter. The arteries were slowly pressurized to 70 mmHg under no flow conditions using a pressure servo-null system (Living Systems Inc., Burlington Vt.), and warmed to 37° C. while being continuously superfused (5 ml/min) with PCSF bubbled with 21% O2, 5% CO2, 74% N2 (pH 7.35-7.40 in the bath). […] Myogenic tone is calculated by the following equation: Myogenic tone=(Dp−Da)/Dp×100
# as §4
# [8] = test system: endothelial cells and smooth muscle cells of rat cerebral arteries; assay: as above; format: cell-based; settings: extraluminal addition
# rat cerebral arteries [9] = assay: Cell viability staining of arteries (propidium iodide, H3334) after peptide; format: cell-based; settings: after treatment with peptide
# Procedure: No PI statined smooth muscle cell nuclei were observed.
# as §5
# [10] = intraluminal perfusion of fluorescent peptide
# Flk-1, sequence (P35968 20-1356, species assumed): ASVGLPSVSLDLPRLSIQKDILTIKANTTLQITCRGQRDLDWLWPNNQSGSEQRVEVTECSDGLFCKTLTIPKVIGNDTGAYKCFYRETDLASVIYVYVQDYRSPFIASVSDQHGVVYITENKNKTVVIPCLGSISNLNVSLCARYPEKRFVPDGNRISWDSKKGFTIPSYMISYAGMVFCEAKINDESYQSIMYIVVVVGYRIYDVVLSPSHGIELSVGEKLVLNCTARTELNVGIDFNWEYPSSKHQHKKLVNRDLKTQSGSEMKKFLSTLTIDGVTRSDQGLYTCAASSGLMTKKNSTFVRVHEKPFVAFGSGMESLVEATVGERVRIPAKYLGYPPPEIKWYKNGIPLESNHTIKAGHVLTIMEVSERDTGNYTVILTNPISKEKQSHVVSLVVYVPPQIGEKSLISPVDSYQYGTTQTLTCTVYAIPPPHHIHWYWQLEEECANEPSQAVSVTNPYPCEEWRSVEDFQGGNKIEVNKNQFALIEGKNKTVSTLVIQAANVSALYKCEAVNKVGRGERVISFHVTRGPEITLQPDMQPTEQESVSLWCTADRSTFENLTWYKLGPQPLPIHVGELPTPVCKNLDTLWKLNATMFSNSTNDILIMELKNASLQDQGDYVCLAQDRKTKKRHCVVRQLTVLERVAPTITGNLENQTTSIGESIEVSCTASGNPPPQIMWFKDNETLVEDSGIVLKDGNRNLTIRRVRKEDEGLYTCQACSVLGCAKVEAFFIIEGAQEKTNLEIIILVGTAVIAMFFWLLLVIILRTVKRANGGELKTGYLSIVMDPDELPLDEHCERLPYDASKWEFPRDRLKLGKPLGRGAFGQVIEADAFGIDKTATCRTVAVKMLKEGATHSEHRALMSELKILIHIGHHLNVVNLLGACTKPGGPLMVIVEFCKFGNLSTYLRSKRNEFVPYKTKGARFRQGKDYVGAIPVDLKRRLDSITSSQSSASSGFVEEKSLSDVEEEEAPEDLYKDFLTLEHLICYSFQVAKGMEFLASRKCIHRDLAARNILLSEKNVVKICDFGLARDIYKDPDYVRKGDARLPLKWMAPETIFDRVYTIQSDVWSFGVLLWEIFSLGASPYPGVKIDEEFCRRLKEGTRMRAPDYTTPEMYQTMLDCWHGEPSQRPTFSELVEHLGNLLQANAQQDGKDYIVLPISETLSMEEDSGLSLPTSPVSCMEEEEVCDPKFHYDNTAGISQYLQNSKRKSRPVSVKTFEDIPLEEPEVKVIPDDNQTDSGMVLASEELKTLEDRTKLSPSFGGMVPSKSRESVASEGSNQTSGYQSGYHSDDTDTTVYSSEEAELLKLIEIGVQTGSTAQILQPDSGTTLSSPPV
substance,measurement,setting,value
RRNalCYCitKdEPYRCitCR [CXCR4 peptide],IC50 for inhibiting HIV,HIV,in the nM range
RQIKIWFQNRRMKWKK-MVRRFLVTLRIRRA [ANT-P14ARF],staining pattern (cell uptake),RG2 cells [1],intracellular punctate staining
MVRRFLVTLRIRRA [P14ARF],% killing (toxicity),T98G cells,no toxicity
same,% killing (toxicity),"RG2 cells [2]; 10 μM peptide, 1 hr",22%
same,reduction in cell viability,RG2 cells [2]; 30-minute incubation,22%
same,endothelium-dependent dilation to histamine and bradykinin,rat cerebral arteries [3],responsive to all stimuli
same,smooth muscle response to 60 and 16 mM KCl,rat cerebral arteries [3],responsive to all stimuli
CDMRGDMFC [αvβ3 integrin binding peptide],IC50,[4],10 µM
HTMYYHHYQHHL [Flk-1 binding peptide],IC50,Flk-1,~100 µM
"RQIKIWFQNRRMKWKK [ANT, membrane permeability domain alone, control peptide]",cells killed,[5],No impact on cell viability
same,fluorescence labeling of cells (uptake),[6],stained the cytoplasm
same,fluorescent intensity (degree of cell uptake),"A172 cells; 30 uM peptide, 1 hr, 37° C.",greater for the ANT peptide than the Tat peptide
same,labeling/uptake by endothelial cells,[7]; [10],restriction of labeling to the endothelial cells; also recorded: cytoplasmic staining of the endothelial cells
same,labeling/uptake by smooth muscle cells,[7]; [10],did not label the smooth muscle cells
same,labeling of smooth muscle cells,[8],able to label the smooth muscle cells
AGGGYGRKKRRQRRRMGRRFVVTVRIRRT [Tat-rat P14ARF],morphology of the endothelial cells,[7]; after intraluminal exposure,morphology of the endothelial cells was altered
same,labeling/uptake by endothelial cells,[7]; [10],restriction of labeling to the endothelial cells
same,endothelium-dependent dilation to histamine and bradykinin,rat cerebral arteries [3],inhibition of vasodilation
same,smooth muscle response to 60 and 16 mM KCl,rat cerebral arteries [3],no effect
same,propidium iodide staining of blood vessels,rat cerebral arteries [9],only the endothelial cells were affected
MVRRFLVTLRIRRAAGGGYGRKKRRQRRR [P14ARF-Tat],IC50,RG2 cells [2]; dose response 1 μM to 10 μM,3 µM
same,staining pattern (cell uptake),"A172 cells; 30 uM peptide, 1 hr, 37° C., serum containing media",nuclear staining
same,cell density,"A172 cells; A172 cells, 1-hour incubation",reduced cell density
same,cell density,RG2 cells [1],reduced cell density compared to TatP14ARF
same,staining pattern (cell uptake),RG2 cells [1],nuclear staining
